EC50 data for 16 molecules are collected here from patent US9233964B2, “Sulfamide piperazine derivatives as protein tyrosine kinase inhibitors and pharmaceutical use therof” (LEO PHARMA A/S, priority 2011, dated 2016).

Holding throughout (format): biochemical
One assay addresses T1, TYK2 (Homo sapiens, UniProt P29597).
T1 construct: JAK1 (aa 850-1154) and TYK2 (aa 871-1187) are expressed with an N-terminally fused GST-tag; GST (N); purchased Carna Biosciences, Inc; host or cells: baculovirus expression system
T1 sequence (P29597 871-1187): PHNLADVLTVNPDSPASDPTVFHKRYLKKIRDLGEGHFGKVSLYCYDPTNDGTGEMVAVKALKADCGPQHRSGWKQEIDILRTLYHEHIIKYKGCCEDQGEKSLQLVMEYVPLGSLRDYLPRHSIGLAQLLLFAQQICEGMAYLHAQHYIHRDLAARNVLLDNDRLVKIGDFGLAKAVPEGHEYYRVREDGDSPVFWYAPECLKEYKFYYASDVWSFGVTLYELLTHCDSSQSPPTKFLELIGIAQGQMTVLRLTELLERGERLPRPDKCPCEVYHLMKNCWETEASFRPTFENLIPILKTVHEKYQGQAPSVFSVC
As to the kind of experiment: JAK kinase assay (HTRF, phosphorylation of synthetic peptide), TYK2. The conditions noted are these: catalytic domain, ATP at Km (13 μM); read-out: TYK2 kinase inhibitory activity (EC50). In outline: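 1 µM biotinylated TK peptide at Km ATP in pH 7.0 Hepes, 20-30 min RT. EDTA stop; overnight streptavidin-XL665/cryptate HTRF read.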
(In TR-FRET formats the signal depends on donor and acceptor labels being close together.)

In the next assay the target is T2, JAK2 (Homo sapiens, UniProt O60674).
T2 construct: All four purified enzymes contain only the catalytic domain; His (N); purchased Carna Biosciences, Inc; host or cells: baculovirus expression system
Nature of the assay: JAK kinase assay (HTRF, phosphorylation of synthetic peptide), JAK2. The conditions noted are these: catalytic domain, ATP at Km (4 μM); read-out: JAK2 kinase inhibitory activity (EC50). In short, it runs like this:
(§1)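 Catalytic-domain human JAK1 (GST-tagged, aa 850-1154) or His-tagged JAK2, baculovirus-expressed, phosphorylated 1 µM biotinylated TK peptide at Km ATP (JAK1 7 µM, 10 mM MgCl2, 50 nM SEB; JAK2 4 µM, 5 mM MgCl2) in pH 7.0 Hepes, 20-30 min RT. EDTA stop; overnight streptavidin-XL665/cryptate HTRF read.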

Another assay has as its target T3, JAK3 (Homo sapiens, UniProt P52333).
T3 construct: All four purified enzymes contain only the catalytic domain; His (N); purchased Carna Biosciences, Inc; host or cells: baculovirus expression system
Nature of the assay: JAK kinase assay (HTRF, phosphorylation of synthetic peptide), JAK3. Particulars: catalytic domain, ATP at Km (2 μM); read-out: JAK3 kinase inhibitory activity (EC50).

The next assay addresses T4, JAK1 (Homo sapiens, UniProt P23458).
T4 construct: JAK1 (aa 850-1154) and TYK2 (aa 871-1187) are expressed with an N-terminally fused GST-tag; GST (N); purchased Carna Biosciences, Inc; host or cells: baculovirus expression system
As to the kind of experiment: JAK kinase assay (HTRF, phosphorylation of synthetic peptide), JAK1. Particulars: catalytic domain, ATP at Km (7 μM); read-out: JAK1 kinase inhibitory activity (EC50). In short, it runs like this: as §1

Molecules are shown by their SMILES.

T3 sequence (P52333 822-1111 limits assumed): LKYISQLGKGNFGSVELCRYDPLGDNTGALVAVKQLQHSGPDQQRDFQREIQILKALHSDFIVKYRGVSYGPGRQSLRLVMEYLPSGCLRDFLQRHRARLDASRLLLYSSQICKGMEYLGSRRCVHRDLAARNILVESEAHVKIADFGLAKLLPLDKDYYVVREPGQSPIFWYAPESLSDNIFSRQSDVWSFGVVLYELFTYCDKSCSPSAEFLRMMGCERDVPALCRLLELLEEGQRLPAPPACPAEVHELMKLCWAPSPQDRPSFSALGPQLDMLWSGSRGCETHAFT
T4 sequence (P23458 850-1154): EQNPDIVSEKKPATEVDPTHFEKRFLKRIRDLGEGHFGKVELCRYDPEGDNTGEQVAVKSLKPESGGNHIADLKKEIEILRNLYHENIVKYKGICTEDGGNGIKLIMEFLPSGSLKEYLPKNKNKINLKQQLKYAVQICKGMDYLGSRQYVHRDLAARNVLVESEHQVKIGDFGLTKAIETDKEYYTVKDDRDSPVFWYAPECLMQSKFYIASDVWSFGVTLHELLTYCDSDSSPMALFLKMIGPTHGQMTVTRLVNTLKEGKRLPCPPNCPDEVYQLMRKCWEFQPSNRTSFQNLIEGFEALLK
T2 sequence (O60674 849-1124 limits assumed): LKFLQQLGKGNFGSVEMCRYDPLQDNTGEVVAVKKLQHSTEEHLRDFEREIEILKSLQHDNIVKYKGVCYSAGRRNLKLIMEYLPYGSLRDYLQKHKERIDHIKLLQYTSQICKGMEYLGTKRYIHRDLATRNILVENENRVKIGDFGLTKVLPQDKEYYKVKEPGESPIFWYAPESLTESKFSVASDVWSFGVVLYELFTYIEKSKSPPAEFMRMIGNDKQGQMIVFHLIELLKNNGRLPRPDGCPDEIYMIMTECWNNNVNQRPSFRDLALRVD

The EC50 is the concentration giving half of the maximal effect. As to `COC(=O)CN(C)S(=O)(=O)N1CCN(c2ncnc3[nH]ccc23)CC12CC2` [Example 34, {Methyl-[7-(7H-pyrrolo[2,3-d]pyrimidin-4-yl)-4,7-diaza-spiro[2.5]octane-4-sulfonyl]-amino}-acetic acid methyl ester], the EC50 was 100 to 500 nM at TYK2, under 100 nM on JAK2, under 100 nM on JAK3 and under 100 nM at JAK1.

With `CN(CCC1CCS(=O)(=O)C1)S(=O)(=O)N1CCN(c2ncnc3[nH]ccc23)CC12CC2` (stereo not shown) [Example 75, N-[2-(1,1-dioxothiolan-3-yl)ethyl]-N-methyl-5-(7H-pyrrolo[2,3-d]pyrimidin-4-yl)-5,8-diazaspiro[2.5]octane-8-sulfonamide], the EC50 on TYK2 was 100 to 500 nM; on JAK2, under 100 nM; at JAK3, under 100 nM; on JAK1 it was under 100 nM.

For `CN(C[C@@H]1CC(F)(F)CN1C(=O)CCC#N)S(=O)(=O)N1CCN(c2ncnc3[nH]ccc23)CC12CC2` [Example 156, N-[[(2S)-1-(3-cyanopropanoyl)-4,4-difluoro-pyrrolidin-2-yl]methyl]-N-methyl-5-(7H-pyrrolo[2,3-d]pyrimidin-4-yl)-5,8-diazaspiro[2.5]octane-8-sulfonamide], the EC50 on TYK2, on JAK2, at JAK3 and on JAK1 was under 100 nM throughout.

For the molecule `N#CCCCN(C1CCC1)S(=O)(=O)N1CCN(c2ncnc3[nH]ccc23)CC12CC2` [Example 102, N-(3-cyanopropyl)-N-cyclobutyl-5-(7H-pyrrolo[2,3-d]pyrimidin-4-yl)-5,8-diazaspiro[2.5]octane-8-sulfonamide], the EC50 on TYK2 is 100 to 500 nM; at JAK2, under 100 nM; on JAK3, under 100 nM; at JAK1, under 100 nM.

`N#CCN(CCc1ccccc1)S(=O)(=O)N1CCN(c2ncnc3[nH]ccc23)CC12CC2` [Example 19, 7-(7H-Pyrrolo[2,3-d]pyrimidin-4-yl)-4,7-diaza-spiro[2.5]octane-4-sulfonic acid cyanomethyl-phenethyl-amide]: the concentration giving a half-maximal response (EC50) on TYK2, on JAK2, at JAK3 and on JAK1 was under 100 nM throughout.

In the case of `CN(C(=O)C1CCS(=O)(=O)CC1)S(=O)(=O)N1CCN(c2ncnc3[nH]ccc23)CC12CC2` [Example 139, N-methyl-1,1-dioxo-N-[[5-(7H-pyrrolo[2,3-d]pyrimidin-4-yl)-5,8-diazaspiro[2.5]octan-8-yl]sulfonyl]thiane-4-carboxamide], the EC50 on TYK2, at JAK2, on JAK3 and at JAK1 was under 100 nM throughout.

For `CN(CC1CCC(C(C)(C)C)CC1)S(=O)(=O)N1CCN(c2ncnc3[nH]ccc23)CC12CC2` (stereo not shown) [Example 84, N-[(4-tert-butylcyclohexyl)methyl]-N-methyl-5-(7H-pyrrolo[2,3-d]pyrimidin-4-yl)-5,8-diazaspiro[2.5]octane-8-sulfonamide], the 50% effective concentration (EC50) at TYK2, at JAK2, on JAK3 and on JAK1 was over 500 nM throughout.

Turning to `O=S(=O)(N(Cc1ccccc1)Cc1ccccc1)N1CCN(c2ncnc3[nH]ccc23)CC12CC2` [Example 146, N,N-dibenzyl-5-(7H-pyrrolo[2,3-d]pyrimidin-4-yl)-5,8-diazaspiro[2.5]octane-8-sulfonamide], the EC50 at TYK2 is over 500 nM; on JAK2, 100 to 500 nM; at JAK3, over 500 nM; on JAK1 it was 100 to 500 nM.

In the case of `CN(CCCc1ccc(C#N)cc1)S(=O)(=O)N1CCN(c2ncnc3[nH]ccc23)CC12CC2` [Example 29, 7-(7H-Pyrrolo[2,3-d]pyrimidin-4-yl)-4,7-diaza-spiro[2.5]octane-4-sulfonic acid [3-(4-cyano-phenyl)-propyl]-methyl-amide], the EC50 on TYK2 was over 500 nM; at JAK2, under 100 nM; at JAK3 it was 100 to 500 nM; on JAK1, under 100 nM.

As to `N#CCN(CC1CCS(=O)(=O)CC1)S(=O)(=O)N1CCN(c2ncnc3[nH]ccc23)CC12CC2` [Example 169, N-(cyanomethyl)-N-[(1,1-dioxothian-4-yl)methyl]-5-(7H-pyrrolo[2,3-d]pyrimidin-4-yl)-5,8-diazaspiro[2.5]octane-8-sulfonamide], the EC50 at TYK2, at JAK2, at JAK3 and at JAK1 was under 100 nM throughout.

With `CN(CC1CCCCC1)S(=O)(=O)N1CCN(c2ncnc3[nH]ccc23)CC12CC2` [Example 15, 7-(7H-Pyrrolo[2,3-d]pyrimidin-4-yl)-4,7-diaza-spiro[2.5]octane-4-sulfonic acid cyclohexylmethyl-methyl-amide], the EC50 was 100 to 500 nM on TYK2, under 100 nM on JAK2, under 100 nM on JAK3 and under 100 nM at JAK1.

For `CN(C[C@@H]1CC(F)(F)CN1C(=O)CCO)S(=O)(=O)N1CCN(c2ncnc3[nH]ccc23)CC12CC2` [Example 155, N-[[(2S)-4,4-difluoro-1-(3-hydroxypropanoyl)pyrrolidin-2-yl]methyl]-N-methyl-5-(7H-pyrrolo[2,3-d]pyrimidin-4-yl)-5,8-diazaspiro[2.5]octane-8-sulfonamide], the EC50 at TYK2, on JAK2, on JAK3 and on JAK1 was under 100 nM in each case.

For `CN(Cc1cccc(F)c1)S(=O)(=O)N1CCN(c2ncnc3[nH]ccc23)CC12CC2` [Example 78, N-[(3-fluorophenyl)methyl]-N-methyl-5-(7H-pyrrolo[2,3-d]pyrimidin-4-yl)-5,8-diazaspiro[2.5]octane-8-sulfonamide], the 50% effective concentration (EC50) was 100 to 500 nM at TYK2, under 100 nM on JAK2, under 100 nM on JAK3 and under 100 nM on JAK1.

With `CN(c1ccccc1)S(=O)(=O)N1CCN(c2ncnc3[nH]ccc23)CC12CC2` [Example 40, 7-(7H-Pyrrolo[2,3-d]pyrimidin-4-yl)-4,7-diaza-spiro[2.5]octane-4-sulfonic acid methyl-phenyl-amide], the EC50 on TYK2 is 100 to 500 nM; at JAK2, under 100 nM; at JAK3 it was 100 to 500 nM; on JAK1 it was under 100 nM.

Turning to `O=S(=O)(N(CCc1ccccc1)CC1CCCCO1)N1CCN(c2ncnc3[nH]ccc23)CC12CC2` (stereo not shown) [Example 21, 7-(7H-Pyrrolo[2,3-d]pyrimidin-4-yl)-4,7-diaza-spiro[2.5]octane-4-sulfonic acid phenethyl-(tetrahydro-pyran-2-ylmethyl)-amide], the EC50 on TYK2 was over 500 nM; at JAK2, under 100 nM; on JAK3, 100 to 500 nM; on JAK1, under 100 nM.

Consider `O=C(CN(CCc1ccccc1)S(=O)(=O)N1CCN(c2ncnc3[nH]ccc23)CC12CC2)NCc1ccccc1` [Example 49, N-Benzyl-2-{phenethyl-[7-(7H-pyrrolo[2,3-d]pyrimidin-4-yl)-4,7-diaza-spiro[2.5]octane-4-sulfonyl]-amino}-acetamide], for which the 50% effective concentration (EC50) on TYK2 was over 500 nM; on JAK2 it was under 100 nM; at JAK3, 100 to 500 nM; at JAK1 it was under 100 nM.
